16 molecules from patent US20250122218A1, “MODULATORS OF CYSTIC FIBROSIS TRANSMEMBRANE CONDUCTANCE REGULATOR” (Vertex Pharmaceuticals Incorporated, priority 2022, published 2025) can be followed below.

As usually defined, the EC50 is the midpoint of the concentration-response curve.

Molecules are shown by their SMILES.

This assay deals with T1, CFTR in F508del/MF-HBE cells (Homo sapiens, UniProt P13569, DEL508-508).
T1 construct: human bronchial epithelial (HBE) cells derived from CF subjects heterozygous for F508del and a minimal function CFTR mutation; endogenous in cells; host or cells: primary human bronchial epithelial cells from CF subjects (F508del/MF-HBE)
T1 sequence (P13569 with tags, fused parts or gaps DEL508-508): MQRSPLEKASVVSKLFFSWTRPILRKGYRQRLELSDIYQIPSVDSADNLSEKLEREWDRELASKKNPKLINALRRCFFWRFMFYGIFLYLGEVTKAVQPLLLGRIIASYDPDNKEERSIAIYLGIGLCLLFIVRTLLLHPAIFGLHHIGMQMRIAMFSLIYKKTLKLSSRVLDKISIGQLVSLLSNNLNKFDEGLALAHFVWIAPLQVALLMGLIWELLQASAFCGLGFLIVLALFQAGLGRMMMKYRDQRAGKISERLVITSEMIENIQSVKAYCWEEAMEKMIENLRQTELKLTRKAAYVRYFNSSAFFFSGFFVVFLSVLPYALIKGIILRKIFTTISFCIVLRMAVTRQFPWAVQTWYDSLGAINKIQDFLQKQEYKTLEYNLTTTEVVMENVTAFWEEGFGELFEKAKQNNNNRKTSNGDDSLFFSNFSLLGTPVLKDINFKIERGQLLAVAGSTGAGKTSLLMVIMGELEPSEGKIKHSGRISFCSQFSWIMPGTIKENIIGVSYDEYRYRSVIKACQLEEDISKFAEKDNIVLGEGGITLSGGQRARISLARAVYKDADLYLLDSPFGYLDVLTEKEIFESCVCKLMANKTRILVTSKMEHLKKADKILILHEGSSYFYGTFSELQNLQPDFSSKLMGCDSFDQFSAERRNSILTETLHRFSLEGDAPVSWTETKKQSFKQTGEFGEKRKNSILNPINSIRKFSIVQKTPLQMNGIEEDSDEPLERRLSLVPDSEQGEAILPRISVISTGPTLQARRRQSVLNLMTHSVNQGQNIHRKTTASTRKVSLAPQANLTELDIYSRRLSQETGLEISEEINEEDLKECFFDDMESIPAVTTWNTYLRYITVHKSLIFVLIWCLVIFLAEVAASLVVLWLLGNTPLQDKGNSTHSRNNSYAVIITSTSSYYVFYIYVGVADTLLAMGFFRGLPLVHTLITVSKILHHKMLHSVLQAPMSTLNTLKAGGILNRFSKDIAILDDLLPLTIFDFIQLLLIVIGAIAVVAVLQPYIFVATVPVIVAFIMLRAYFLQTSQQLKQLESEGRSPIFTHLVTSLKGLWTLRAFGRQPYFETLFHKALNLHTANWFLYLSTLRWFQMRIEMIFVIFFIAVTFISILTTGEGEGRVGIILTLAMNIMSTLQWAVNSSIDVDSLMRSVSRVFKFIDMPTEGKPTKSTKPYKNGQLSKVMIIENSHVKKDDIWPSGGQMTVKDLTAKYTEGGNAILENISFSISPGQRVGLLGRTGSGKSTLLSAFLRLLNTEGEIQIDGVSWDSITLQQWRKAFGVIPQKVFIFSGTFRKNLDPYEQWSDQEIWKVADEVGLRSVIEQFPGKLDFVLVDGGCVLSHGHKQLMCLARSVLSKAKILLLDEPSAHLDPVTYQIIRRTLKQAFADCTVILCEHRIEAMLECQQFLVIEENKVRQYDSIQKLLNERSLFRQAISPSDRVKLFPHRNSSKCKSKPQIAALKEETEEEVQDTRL
Description: Ussing chamber assay of CFTR-mediated short-circuit currents (identification of potentiator compounds). The class given is cell-based. Particulars: potentiator incubated 18-24 hours at 37° C. in combination with 10 μM corrector, in the presence of 20% human serum, CFTR-mediated ISC. Summed up:
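F508del/MF-HBE cultures were preincubated 18-24 h at 37° C with potentiator plus 10 μM of a fixed corrector compound in 20% human serum; compounds were kept present during measurement. ISC was recorded under voltage clamp (0 mV, 37° C, amiloride apical) and taken as the 20 μM forskolin peak minus the current after inhibitor cocktail.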
On to `N#Cc1cc(N)c2nc1C(=O)N(C1CC(F)(F)C1)CCCCCC(O)(C(F)(F)F)C1=NN=C2O1` (single isomer, unassigned) [Compound 197, 17-amino-12-(3,3-difluorocyclobutyl)-6-hydroxy-13-oxo-6-(trifluoromethyl)-19-oxa-3,4,12,18-tetrazatricyclo[12.3.1.12,5]nonadeca-1(18),2,4,14,16-pentaene-15-carbonitrile], for which the EC50 was above 1000 nM.

As to `Nc1cc(C(F)(F)F)c2nc1-c1nnc(o1)C(O)(C(F)(F)F)CCCCN(C1CC(F)(F)C1)C2=O` (single isomer, unassigned) [Compound 198, 16-amino-11-(3,3-difluorocyclobutyl)-6-hydroxy-6,14-bis(trifluoromethyl)-18-oxa-3,4,11,17-tetrazatricyclo[11.3.1.12,5]octadeca-1(17),2,4,13,15-pentaen-12-one], the concentration for a half-maximal effect (EC50) was below 500 nM.

In the case of `Nc1cc(C(F)(F)F)c2nc1-c1nnc(o1)C(O)(C(F)(F)F)CCCCN(C1CC(F)(F)C1)C2=O` (single isomer, unassigned) [Compound 199, 16-amino-11-(3,3-difluorocyclobutyl)-6-hydroxy-6,14-bis(trifluoromethyl)-18-oxa-3,4,11,17-tetrazatricyclo[11.3.1.12,5]octadeca-1(17),2,4,13,15-pentaen-12-one], the EC50 was above 1000 nM.

`Nc1cc(C(F)(F)F)c2nc1-c1nnc(o1)C(O)(C(F)(F)F)c1cc(ccc1F)CCCN(C1CC(F)(F)C1)C2=O` (single isomer, unassigned) [Compound 202, 20-amino-15-(3,3-difluorocyclobutyl)-8-fluoro-6-hydroxy-6,18-bis(trifluoromethyl)-23-oxa-3,4,15,21-tetraazatetracyclo [15.3.1.12,5.17,11] tricosa 1(21),2,4,7(22),8,10, 17,19-octaen-16-one]: the EC50 was below 500 nM.

In the case of `Nc1cc(C(F)(F)F)c2nc1-c1nnc(o1)C(O)(C(F)(F)F)c1cc(ccc1F)CCCN(C1CC(F)(F)C1)C2=O` (single isomer, unassigned) [Compound 203, 20-amino-15-(3,3-difluorocyclobutyl)-8-fluoro-6-hydroxy-6,18-bis(trifluoromethyl)-23-oxa-3,4,15,21-tetraazatetracyclo [15.3.1.12,5.17,11] tricosa 1(21),2,4,7(22),8,10, 17,19-octaen-16-one], the EC50 is below 500 nM.

With `CC(C)N1CCCCCC(O)(C(F)(F)F)C2=NN=C(O2)c2nc(c(C(F)(F)F)cc2N)C1=O` (single isomer, unassigned) [Compound 204, 17-amino-6-hydroxy-12-isopropyl-6,15-bis(trifluoromethyl)-19-oxa-3,4,12,18-tetrazatricyclo [12.3.1.12,5] nonadeca-1(18),2,4,14,16-pentaen-13-one], the concentration for a half-maximal effect (EC50) is below 500 nM.

Regarding `CC(C)N1CCCCCC(O)(C(F)(F)F)C2=NN=C(O2)c2nc(c(C(F)(F)F)cc2N)C1=O` (single isomer, unassigned) [Compound 205, 17-amino-6-hydroxy-12-isopropyl-6,15-bis(trifluoromethyl)-19-oxa-3,4,12,18-tetrazatricyclo [12.3.1.12,5] nonadeca-1(18),2,4,14,16-pentaen-13-one], the EC50 was above 1000 nM.

On to `Nc1cc(C(F)(F)F)c2nc1-c1nnc(o1)C(O)(C(F)(F)F)CCCCCN(CC(F)(F)F)C2=O` (single isomer, unassigned) [Compound 206, 17-amino-6-hydroxy-12-(2,2,2-trifluoroethyl)-6,15-bis(trifluoromethyl)-19-oxa-3,4,12,18-tetrazatricyclo [12.3.1.12,5] nonadeca-1(18),2,4,14,16-pentaen-13-one], for which the EC50 was below 500 nM.

For `Nc1cc(C(F)(F)F)c2nc1-c1nnc(o1)C(O)(C(F)(F)F)CCCCCN(CC(F)(F)F)C2=O` (single isomer, unassigned) [Compound 207, 17-amino-6-hydroxy-12-(2,2,2-trifluoroethyl)-6,15-bis(trifluoromethyl)-19-oxa-3,4,12,18-tetrazatricyclo [12.3.1.12,5] nonadeca-1(18),2,4,14,16-pentaen-13-one], the EC50 is above 1000 nM.

`CC(C)(C)c1ccc(C2(N3CCCCCC(O)(C(F)(F)F)C4=NN=C(O4)c4nc(c(C(F)(F)F)cc4N)C3=O)CC2)cc1` (single isomer, unassigned) [Compound 227, 17-amino-12-[1-(4-tert-butylphenyl)cyclo-propyl]-6-hydroxy-6,15-bis(trifluoromethyl)-19-oxa-3,4,12,18-tetrazatricyclo [12.3.1.12,5] nonadeca-1(18),2,4,14,16-pentaen-13-one]: the EC50 was below 500 nM.

Regarding `CC(C)(C)c1ccc(C2(N3CCCCCC(O)(C(F)(F)F)C4=NN=C(O4)c4nc(c(C(F)(F)F)cc4N)C3=O)CC2)cc1` (single isomer, unassigned) [Compound 228, 17-amino-12-[1-(4-tert-butylphenyl)cyclo-propyl]-6-hydroxy-6,15-bis(trifluoromethyl)-19-oxa-3,4,12,18-tetrazatricyclo [12.3.1.12,5] nonadeca-1(18),2,4,14,16-pentaen-13-one], the EC50 was below 500 nM.

On to `CC(C)CN1CCCCC(O)(C(F)(F)F)C2=NN=C(O2)c2nc(c(C(F)(F)F)cc2N)C1=O` (single isomer, unassigned) [Compound 232, 16-amino-6-hydroxy-11-isobutyl-6,14-bis(trifluoromethyl)-18-oxa-3,4,11,17-tetrazatricyclo [11.3.1.12,5] octadeca-1(17),2,4,13,15-pentaen-12-one], for which the EC50 is below 500 nM.

For `CC(C)CN1CCCCC(O)(C(F)(F)F)C2=NN=C(O2)c2nc(c(C(F)(F)F)cc2N)C1=O` (single isomer, unassigned) [Compound 233, 16-amino-6-hydroxy-11-isobutyl-6,14-bis(trifluoromethyl)-18-oxa-3,4,11,17-tetrazatricyclo [11.3.1.12,5] octadeca-1(17),2,4,13,15-pentaen-12-one], the EC50 is below 500 nM.

On to `Nc1cc(C(F)(F)F)c2nc1-c1nnc(o1)C(O)(C(F)(F)F)CCCCN(Cc1ccc(OC(F)(F)F)cc1)C2=O` (single isomer, unassigned) [Compound 234, 16-amino-6-hydroxy-11-[[4-(trifluoromethoxy)phenyl]methyl]-6,14-bis(trifluoromethyl)-18-oxa-3,4,11,17-tetrazatricyclo [11.3.1.12,5] octadeca-1(17),2,4,13,15-pentaen-12-one], for which the EC50 was below 500 nM.

As to `Nc1cc(C(F)(F)F)c2nc1-c1nnc(o1)C(O)(C(F)(F)F)CCCCN(Cc1ccc(OC(F)(F)F)cc1)C2=O` (single isomer, unassigned) [Compound 235, 16-amino-6-hydroxy-11-[[4-(trifluoromethoxy)phenyl]methyl]-6,14-bis(trifluoromethyl)-18-oxa-3,4,11,17-tetrazatricyclo [11.3.1.12,5] octadeca-1(17),2,4,13,15-pentaen-12-one], the EC50 is below 500 nM.

On to `Nc1cc(C(F)(F)F)c2nc1-c1nnc(o1)C(O)(C(F)(F)F)CCCCCN(Cc1ccc(Br)cc1)C2=O` (single isomer, unassigned) [Compound 236, 17-amino-12-[(4-bromophenyl)methyl]-6-hydroxy-6,15-bis(trifluoromethyl)-19-oxa-3,4,12,18-tetrazatricyclo [12.3.1.12,5] nonadeca-1(18),2,4,14,16-pentaen-13-one], for which the EC50 is below 500 nM.
